What is called melting point is the temperature, or range, at which the solid turns liquid.

This is an account of results in patent US20040242869A1, “Semicarbazides and their uses” (priority 2001, published 2004).

Bounds are passed on as bounds.

Compound `COc1ccc(-c2[nH]nc3c2C(=O)c2c(NC(N)=O)cccc2-3)cc1` [Example 5, [3-(4-methoxy-phenyl)-4-oxo-2,4-dihydro-indeno[1,2-c]pyrazol-5-yl]-urea] gave a melting point of 267 to 269 °C.
`COc1ccc(-c2[nH]nc3c2C(=O)c2c(NC(=O)CN4CCC(CN)CC4)cccc2-3)cc1` [Example 9, 2-(4-aminomethyl-piperidin-1-yl)-N-[3-(4-methoxy-phenyl)-4-oxo-2,4-dihydro-indeno[1,2-c]pyrazol-5-yl]-acetamide]: the melting point was greater than 300 °C.
On to `COc1ccc(-c2[nH]nc3c2C(=O)c2c(NC(=O)NN4CCOCC4)cccc2-3)cc1` [Example 4, 1-[3-(4-methoxy-phenyl)-4-oxo-2,4-dihydro-indeno[1,2-c]pyrazol-5-yl]-3-morpholin-4-yl-urea], for which the melting point lay in the range of 290 to 291 °C.
Consider `COC(=O)Nc1cccc2c1C(=O)c1c-2n[nH]c1-c1ccc(OC)cc1` [Example 11, 3-(4-Methoxyphenyl)-5-methoxycarbonylamino-2H-indeno-[1,2-c]pyrazol-4-one], for which the melting point was greater than 300 °C.
